The values that follow come from ChEMBL document CHEMBL1201862, “PubChem BioAssay data set” (2004).

For experiment [1], the target named is Alkaline phosphatase, placental type (Homo sapiens, UniProt P05187). The experiment is described as follows: PLAP enzyme inhibitors, confirmation, biochemical, luminescence (AID 1512). The experiment is classed as functional.
The target in experiment [2] is Glyceraldehyde-3-phosphate dehydrogenase (Homo sapiens, UniProt P04406).
In experiment [3] the target is Intestinal-type alkaline phosphatase (Mus musculus, UniProt P24822). Kind of experiment: PubChem AID 488874. The format is functional.
Chain of Intestinal-type alkaline phosphatase (Mus musculus, UniProt P24822) (P24822 whole entry): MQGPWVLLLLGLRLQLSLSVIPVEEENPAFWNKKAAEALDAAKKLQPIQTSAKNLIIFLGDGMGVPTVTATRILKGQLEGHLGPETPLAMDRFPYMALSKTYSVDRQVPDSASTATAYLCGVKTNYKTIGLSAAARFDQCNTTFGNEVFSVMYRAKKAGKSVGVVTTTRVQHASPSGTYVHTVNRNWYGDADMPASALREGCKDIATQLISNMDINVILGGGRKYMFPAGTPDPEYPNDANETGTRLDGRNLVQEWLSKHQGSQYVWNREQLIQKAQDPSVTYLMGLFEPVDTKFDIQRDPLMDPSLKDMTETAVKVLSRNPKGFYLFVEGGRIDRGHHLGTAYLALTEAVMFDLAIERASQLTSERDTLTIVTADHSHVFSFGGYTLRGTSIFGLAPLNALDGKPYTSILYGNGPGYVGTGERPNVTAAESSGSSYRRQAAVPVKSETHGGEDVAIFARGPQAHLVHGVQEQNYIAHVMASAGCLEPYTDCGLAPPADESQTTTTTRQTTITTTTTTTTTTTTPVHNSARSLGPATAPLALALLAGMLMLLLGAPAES
Experiment [4] deals with T1, Intestinal-type alkaline phosphatase (Homo sapiens, UniProt P09923). Kind of experiment: human intestinal alkaline phosphatase activators, dose response, biochemical, luminescence, uHTS hits (AID 463120). The experiment is classed as functional.
T1 sequence (P09923 whole entry): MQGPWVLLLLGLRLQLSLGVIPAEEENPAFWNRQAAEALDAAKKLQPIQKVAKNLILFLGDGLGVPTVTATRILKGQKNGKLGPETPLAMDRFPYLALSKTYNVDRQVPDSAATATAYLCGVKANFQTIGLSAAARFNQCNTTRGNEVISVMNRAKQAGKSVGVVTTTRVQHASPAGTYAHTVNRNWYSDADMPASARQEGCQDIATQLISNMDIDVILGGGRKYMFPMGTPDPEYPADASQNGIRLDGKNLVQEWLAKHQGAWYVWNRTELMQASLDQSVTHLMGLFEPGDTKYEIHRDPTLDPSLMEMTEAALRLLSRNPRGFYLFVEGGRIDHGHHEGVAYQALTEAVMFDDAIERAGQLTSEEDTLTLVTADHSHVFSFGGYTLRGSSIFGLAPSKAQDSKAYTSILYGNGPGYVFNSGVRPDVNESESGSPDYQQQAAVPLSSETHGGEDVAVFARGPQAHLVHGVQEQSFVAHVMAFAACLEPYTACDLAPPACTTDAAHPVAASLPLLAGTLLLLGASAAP
The target in experiment [5] is T1, Intestinal-type alkaline phosphatase. Kind of experiment: human IAP activators, dose response, biochemical, luminescent, uHTS hits, set 2 (AID 488817).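 Also: potency of activators that raise enzyme activity.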 The experiment is classed as functional.
A further experiment concerns Streptococcus. The experiment is described as follows: Group A Streptococcus viability loss, dose response, counter-screen for streptokinase expression inhibitor project, luminescence, BacTiterGlo (AID 1915).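 Also: potency for reduction of bacterial viability or growth.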 The format is functional, organism-based. Background: A counterscreen serves to expose hits that act by an unwanted route or on another target.
For experiment [6], the system named is Streptococcus sp. 'group A'. The experiment is described as follows: growth inhibition of control SK(-) GAS strain, dose response, counter-screen for streptokinase expression inhibitor project, luminescence, kanamycin, BacTiterGlo, confirmation (AID 1900). The experiment is classed as functional, organism-based.
In experiment [7] the target is T2, Runt-related transcription factor 1/Core-binding factor subunit beta (Homo sapiens, UniProt Q01196+Q13951). The experiment is described as follows: inhibitors of RUNX1 Runt–CBFb-SMMHC binding, biochemical, TR-FRET (AID 1438). The experiment is classed as protein assay.
T2 sequence (Q01196 whole entry, the tested form may be a part): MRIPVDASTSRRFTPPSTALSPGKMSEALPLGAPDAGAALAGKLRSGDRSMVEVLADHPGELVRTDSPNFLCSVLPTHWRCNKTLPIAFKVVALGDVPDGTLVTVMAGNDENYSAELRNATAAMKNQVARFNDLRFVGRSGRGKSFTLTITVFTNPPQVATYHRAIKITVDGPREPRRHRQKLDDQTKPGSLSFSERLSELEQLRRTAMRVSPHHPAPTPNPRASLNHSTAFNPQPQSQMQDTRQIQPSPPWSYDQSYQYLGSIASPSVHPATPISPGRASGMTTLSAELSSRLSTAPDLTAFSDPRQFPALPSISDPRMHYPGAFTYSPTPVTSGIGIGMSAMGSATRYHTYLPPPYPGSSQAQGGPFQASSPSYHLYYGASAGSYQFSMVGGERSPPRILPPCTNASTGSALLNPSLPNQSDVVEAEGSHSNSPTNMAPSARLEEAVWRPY
T2 sequence (Q13951 whole entry, the tested form may be a part): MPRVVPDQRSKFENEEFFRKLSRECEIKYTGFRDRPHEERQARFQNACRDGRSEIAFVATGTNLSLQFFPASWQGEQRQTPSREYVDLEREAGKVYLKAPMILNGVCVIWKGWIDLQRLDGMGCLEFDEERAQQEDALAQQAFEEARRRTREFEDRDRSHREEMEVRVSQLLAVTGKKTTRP
The target in experiment [8] is T2, Runt-related transcription factor 1/Core-binding factor subunit beta. Kind of experiment: inhibitors of RUNX1 Runt–CBFb-SMMHC binding, primary screen, biochemical, FRET, Cerulean-Runt, Venus-CBFb-SMMHC, uHTS (AID 1434).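 Also: partner is the CBFb-SMMHC leukemia fusion protein rather than wild-type CBFb.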 The format is protein assay.
Experiment [9] is described as follows: control 3'UTR Renilla luciferase suppression, dose response, counter-screen for Shn3 inhibitor project, cell-based, Clone20-Shn3RL, cherry-picked (AID 624133). The format is functional.
For experiment [10], the system named is HEK293. The experiment is described as follows: NOD1 signaling inhibitors, primary screen, cell-based, luminescence, uHTS (AID 1578). The format is functional. To be noted: Homo sapiens.
In a further experiment the target is Paired box protein Pax-8 (Homo sapiens, UniProt Q06710). Kind of experiment: inhibitors of PAX8-driven TPO luciferase reporter, dose response, RMG-I cells, cherry-pick (AID 687027).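 Also: luciferase reporter driven by Pax8 target thyroperoxidase promoter measured by SteadyGlo luminescence.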 The format is functional, cell-based.
Chain of Paired box protein Pax-8 (Q06710 whole entry): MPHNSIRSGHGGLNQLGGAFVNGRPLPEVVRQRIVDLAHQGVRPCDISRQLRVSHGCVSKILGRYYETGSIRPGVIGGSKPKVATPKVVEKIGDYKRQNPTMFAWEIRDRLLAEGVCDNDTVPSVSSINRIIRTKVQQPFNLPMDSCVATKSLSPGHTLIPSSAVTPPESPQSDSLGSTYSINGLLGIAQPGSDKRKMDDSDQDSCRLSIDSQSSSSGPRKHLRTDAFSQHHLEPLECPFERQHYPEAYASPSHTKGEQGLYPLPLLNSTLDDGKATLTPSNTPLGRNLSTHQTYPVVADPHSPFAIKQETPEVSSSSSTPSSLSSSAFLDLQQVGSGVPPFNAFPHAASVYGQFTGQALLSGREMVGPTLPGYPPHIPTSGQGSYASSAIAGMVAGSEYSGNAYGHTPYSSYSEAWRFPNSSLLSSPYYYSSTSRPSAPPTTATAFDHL
Experiment [11] relates to HEK293. The experiment is described as follows: cells. The conditions noted are these: Homo sapiens. The format is functional, cell-based.
In experiment [12] the test system is HEK293. Kind of experiment: cells. The experiment is classed as functional, cell-based. The conditions noted are these: Homo sapiens. This is another data set of the same source.
Experiment [13] relates to HEK293. Kind of experiment: NOD2 signaling inhibitors in MDP-stimulated cells, cell-based, uHTS, luminescence (AID 2001). The experiment is classed as functional. To be noted: Homo sapiens.
Experiment [14] relates to HEK293. The experiment is described as follows: cells. The experiment is classed as functional, cell-based. To be noted: Homo sapiens. This is another data set of the same source.
A short description of experiment [15]: Shn3 3'UTR reporter inhibitors, dose response, cell-based, Clone20 osteoblasts, firefly luciferase, cherry-picked (AID 624132).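 Also: firefly luciferase luminescence from reporter carrying the Shn3 3'UTR in osteoblasts.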 The format is functional.
Experiment [16] addresses G-protein coupled receptor 55 (Homo sapiens, UniProt Q9Y2T6). Kind of experiment: GPR55 agonists via beta-arrestin recruitment, primary screen, imaging, U2OS cells, beta-arrestin-GFP redistribution (AID 1961). The format is functional. On the technique in general: Recruitment of arrestin is a read-out of receptor activation apart from second messengers.
Experiment [17] is described as follows: non-specific cell cytotoxicity, dose response, cytotoxicity control for PAX8 inhibitor project, plate reader, dry powder samples (AID 743021). The format is functional, cell-based.
The nature of experiment [18]: HepG2 cell cytotoxicity, dose response, cytotoxicity control for Shn3 inhibitor project, CellTiter-Glo, cherry-picked (AID 624134). The experiment is classed as functional, cell-based.
The target of experiment [19] is Nucleotide-binding oligomerization domain-containing protein 2 (Homo sapiens, UniProt Q9HC29). The experiment is described as follows: NOD2 signaling inhibitors, cell-based, luminescence, uHTS, HEK293 (AID 1566). The experiment is classed as functional.
Chain of Nucleotide-binding oligomerization domain-containing protein 2 (Q9HC29 whole entry, the tested form may be a part): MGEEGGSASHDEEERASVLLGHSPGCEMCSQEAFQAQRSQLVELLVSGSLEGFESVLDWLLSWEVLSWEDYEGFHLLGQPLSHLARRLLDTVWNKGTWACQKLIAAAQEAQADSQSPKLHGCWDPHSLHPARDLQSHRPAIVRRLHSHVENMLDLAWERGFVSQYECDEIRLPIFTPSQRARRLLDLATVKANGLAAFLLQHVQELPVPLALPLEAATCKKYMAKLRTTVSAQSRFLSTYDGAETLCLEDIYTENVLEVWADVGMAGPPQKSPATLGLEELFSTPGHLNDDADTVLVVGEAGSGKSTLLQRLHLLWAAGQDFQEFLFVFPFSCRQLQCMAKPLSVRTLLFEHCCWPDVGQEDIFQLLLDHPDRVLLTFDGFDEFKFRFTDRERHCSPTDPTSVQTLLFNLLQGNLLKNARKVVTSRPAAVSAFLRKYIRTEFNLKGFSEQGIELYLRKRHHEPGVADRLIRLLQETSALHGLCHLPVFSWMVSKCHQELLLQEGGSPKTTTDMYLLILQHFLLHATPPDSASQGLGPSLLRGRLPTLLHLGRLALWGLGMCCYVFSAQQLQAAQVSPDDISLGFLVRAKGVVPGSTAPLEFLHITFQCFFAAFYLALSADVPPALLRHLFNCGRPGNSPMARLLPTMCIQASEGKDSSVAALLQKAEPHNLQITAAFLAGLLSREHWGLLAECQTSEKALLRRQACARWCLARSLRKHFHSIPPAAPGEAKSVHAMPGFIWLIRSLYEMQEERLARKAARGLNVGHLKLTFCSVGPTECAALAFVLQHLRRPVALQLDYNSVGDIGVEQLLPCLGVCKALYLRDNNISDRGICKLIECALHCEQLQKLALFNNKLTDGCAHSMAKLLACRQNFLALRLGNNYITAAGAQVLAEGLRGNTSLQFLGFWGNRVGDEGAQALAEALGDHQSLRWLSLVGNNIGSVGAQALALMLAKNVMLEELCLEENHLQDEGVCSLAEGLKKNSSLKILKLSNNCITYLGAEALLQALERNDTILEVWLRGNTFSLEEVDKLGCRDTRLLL

The source made the active and inactive calls.

Chain of Alkaline phosphatase, placental type (P05187 whole entry): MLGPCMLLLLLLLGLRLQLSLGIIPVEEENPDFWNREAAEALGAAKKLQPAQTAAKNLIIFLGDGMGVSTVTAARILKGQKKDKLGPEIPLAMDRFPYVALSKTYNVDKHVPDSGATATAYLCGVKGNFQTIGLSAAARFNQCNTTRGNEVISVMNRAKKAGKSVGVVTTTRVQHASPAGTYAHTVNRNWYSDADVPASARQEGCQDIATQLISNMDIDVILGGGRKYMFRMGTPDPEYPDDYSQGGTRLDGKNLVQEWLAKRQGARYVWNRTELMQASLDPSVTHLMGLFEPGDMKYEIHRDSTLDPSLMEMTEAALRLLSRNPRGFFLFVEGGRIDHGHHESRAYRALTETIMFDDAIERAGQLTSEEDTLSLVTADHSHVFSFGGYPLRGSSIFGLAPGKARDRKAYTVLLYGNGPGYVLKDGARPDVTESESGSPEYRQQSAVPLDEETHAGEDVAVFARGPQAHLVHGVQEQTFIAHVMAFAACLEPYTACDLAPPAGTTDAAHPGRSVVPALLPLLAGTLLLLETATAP
Chain of G-protein coupled receptor 55 (Q9Y2T6 whole entry): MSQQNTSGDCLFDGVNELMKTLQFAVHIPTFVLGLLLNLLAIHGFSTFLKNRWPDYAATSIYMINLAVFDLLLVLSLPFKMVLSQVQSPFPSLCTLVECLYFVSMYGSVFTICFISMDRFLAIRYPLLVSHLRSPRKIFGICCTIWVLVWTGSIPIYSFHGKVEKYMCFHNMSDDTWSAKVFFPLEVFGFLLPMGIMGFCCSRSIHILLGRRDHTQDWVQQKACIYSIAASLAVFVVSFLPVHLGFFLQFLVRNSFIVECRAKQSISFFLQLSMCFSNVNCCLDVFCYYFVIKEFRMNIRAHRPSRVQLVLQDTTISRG
Chain of Glyceraldehyde-3-phosphate dehydrogenase (P04406 whole entry): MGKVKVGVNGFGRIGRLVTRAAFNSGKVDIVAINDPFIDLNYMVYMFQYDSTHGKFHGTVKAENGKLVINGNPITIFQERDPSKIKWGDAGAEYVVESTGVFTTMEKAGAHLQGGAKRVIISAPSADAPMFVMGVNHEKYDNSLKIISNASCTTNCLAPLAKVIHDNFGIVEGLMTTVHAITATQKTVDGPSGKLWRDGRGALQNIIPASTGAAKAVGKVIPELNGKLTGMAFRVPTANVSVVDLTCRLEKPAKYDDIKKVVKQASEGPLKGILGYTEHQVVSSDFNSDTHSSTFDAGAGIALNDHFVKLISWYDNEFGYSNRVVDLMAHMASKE

What is called IC50 is the concentration needed to halve the response being measured. What is called EC50 is the midpoint of the concentration-response curve. As for `Cc1cc(OCC(=O)Nc2nc[nH]n2)ccc1Cl`, the IC50 in experiment [1] is > 100 µM (inactive); in [2], > 10 µM (inconclusive); in experiment [3], > 100 µM (inactive). Further, the EC50 was 10.7 µM (active) in experiment [4] and 21 µM (active) in [5].

`COCCNC(=O)c1c(NC(=O)c2ccc(Br)o2)n(Cc2ccccc2)c2nc3ccccc3nc12`: the EC50 with Streptococcus is 4.36 µM (active); in experiment [6], 1.9 µM (active). Besides, the figures for the IC50 in experiment [7] and in experiment [8] were > 100 µM (inactive) and 2.14 µM (active), respectively.

By AC50 is commonly meant the concentration giving half of the maximal activity seen. As for `CCOc1ccc(C(=O)C(CCC(CN(C)C)C(=O)c2ccc(OCC)cc2)CN(C)C)cc1` (stereo unspecified), the AC50 in experiment [9] was 7.72 µM (active); on Paired box protein Pax-8, 4.27 µM (active); in experiment [15], 1.61 µM (active); in [17] it was 36.7 µM (active); in experiment [18] it was 6.77 µM (active). The EC50 with HEK293 [10] is 15.9 µM (active); in experiment [16], > 32 µM (inactive); in experiment [19] it was > 20 µM (inactive). Also, the IC50 in the experiment on HEK293 [11] is > 20 µM (inactive); with HEK293 [12], 1.53 µM (active); in the experiment with HEK293 [13], 2.48 µM (active); in the experiment on HEK293 [14], 6.72 µM (active).
